Data from patent publication US20130344095A1, “METHOD OF USING CD1D OVER-EXPRESSION IN HUMAN DENDRITIC CELLS TO ENHANCE CD8+ T CELL-BASED AND INVARIANT NATURAL KILLER T CELL-BASED ANTITUMOR IMMUNITY” (priority 2011, published 2013).

Key:
[1] = system: MART-1 peptide-specific CD8+ T cells; assay: Priming of MART-1 peptide-specific CD8+ T cells by H1.DCs (pentamer staining); assay type: cell-based, human; settings: for T cell priming ability of CD1d-overexpressing H1.DCs: DCs treated 24 hours with 20 μM PPMP or 150 μM NB-DGJ one day after transduction
Procedure: (§1) The DCs were first transduced by BV-CMV.CD1d-WPRE and pulsed with or without 100 ng/ml α-GC for 24 h one day after transduction. Two days after transduction, the DCs were pulsed with 10 μg/ml MART-1 peptide for 4 h. After washing, 10^5 DCs were co-cultured with 10^6 HLA A2+ PBLs in complete RPMI 1640. After co-culture of 9 days, to detect antigen-specific CTLs, the samples were stained with APC mouse anti-human CD3, FITC-labeled anti-CD8 (ProImmune) and R-PE-labeled A*0201/[…] Pentamer (ProImmune) and analyzed by FACSAria flow cytometer. In some experiments, the CD1d-overexpressing human DCs were pretreated with anti-CD1d blocking antibody (eBioscience, San Diego, Calif.) or its isotype control (eBiosciecne) before applying for T cell priming. To study the effect of glycolipid biosynthesis inhibition on T cell priming, the BVCD1d-transduced human DCs were treated with 20 μM DL-threo-1-Phenyl-2-palmitoylamino-3-morpholino-1-propanol (PPMP; Sigma-Aldrich) or 150 μM N-(n-Butyl)deoxygalactonojirimycin (NB-DGJ; Merck KGaA, Darmstadt, Germany) for 24 hours one day after transduction. In other experiments, the cocultures were restimulated with 10^5 MART-1 peptide-pulsed DCs on day 9 of coculture and analyzed one week after restimulation. To measure antigen-specific CTL activity, the cocultures were stimulated for the third time on day 7 after second stimulation with 10^5 MART-1 peptide-pulsed DCs and used as effectors for lysis of tumor cells one week later.

[2] = system: MART-1 peptide-specific CD8+ T cells; assay: Priming of MART-1 peptide-specific CD8+ T cells by moDCs (pentamer staining); assay type: cell-based, human; settings: DCs treated 24 hours with 20 μM PPMP or 150 μM NB-DGJ one day after transduction
Procedure: as §1, with “To measure antigen-specific CTL activity, the cocultures were stimulated for the third time on day 7 after second stimulation with 10^5 MART-1 peptide-pulsed DCs and used as effectors for lysis of tumor cells one week later.” left out

SMILES | T cell priming ability of CD1d-overexpressing H1.DCs [1] | T cell priming ability of CD1d-overexpressing moDCs [2] | priming ability of CD1d-overexpressing H1.DCs with α-GC loading ([1]; compared with those without α-GC loading (p<0.04)) | effect of α-GC loading on priming of antigen-specific CD8+ T cells ([1]; mock-transduced, BV-PacPAK6-transduced and CD1d-overexpressing H1.DCs, 100 ng/ml α-GC)
CCCCCCCCCCCCCCCC(=O)N[C@H](CN1CCOCC1)[C@H](O)c1ccccc1 (racemic) [PPMP, DL-threo-1-Phenyl-2-palmitoylamino-3-morpholino-1-propanol] | inhibited | inhibited | – | –
CCCCN1C[C@H](O)[C@@H](O)[C@@H](O)[C@H]1CO [NB-DGJ, N-(n-Butyl)deoxygalactonojirimycin] | inhibited | inhibited | – | –
CCCCCCCCCCCCCCCCCCCCCCCCCC(=O)N[C@@H](CO[C@H]1O[C@H](CO)[C@H](O)[C@H](O)[C@H]1O)[C@H](O)[C@H](O)CCCCCCCCCCCCCC [α-GC, α-galactosylceramide] | – | – | significantly decreased | no obvious beneficial effect
